US10337049B2, “Universal methylation profiling methods” (THE TRUSTEES OF COLUMBIA UNIVERSITY IN THE CITY OF NEW YORK, priority 2013, dated 2019)

How the values were obtained:
[1] = Photo-irradiation of 5 position-modified deoxycytidine at about 300 nm, HPLC/UV/MS monitoring; format: physicochemical; details: for photochemical conversion to U analog on photo-irradiation: about 300 nm, aqueous solution, up to 12 h
Protocol: Photo-irradiation of 5-All-OMC at about 300 nm was then conducted in aqueous solution for up to 12 h, and the reaction products separated and monitored by HPLC and UV absorption.
Both C and 5-methyl-C remain intact after photo-irradiation under the same conditions. […] To further verify this conversion, 5-All-OMU was synthesized and characterized. […] The photochemically generated 5-All-OMU was also characterized by ^1HNMR.

[2] = Photo-irradiation of 16mer oligonucleotide, single base extension-MS analysis; format: physicochemical; details: primer 5′-TGCCGCACTC-3′, MS of elongated primer
Protocol: After HPLC purification, the modified 16mer was characterized by MALDI-TOF MS yielding a peak with MW of 5001, equal to the calculated mass. Then photo-irradiation of oligo [NT] ID NO: 1) was conducted to convert C* to a U analog. The outcome for conversion of C* in DNA was detected by using single base extension-MS analysis (FIG. 7). In this analysis, the photo-irradiated oligonucleotide was annealed with a primer […] 2964) (SEQ ID NO: 2), then incubated with ddNTPs and DNA polymerase. With the aid of DNA polymerase, one of the 4 ddNTPs can be selectively incorporated onto the 3' end of the primer. Photo-chemistry induced conversion of C to U should be able to direct the incorporation of ddA, resulting in an elongated primer with a MW of 3261, otherwise ddG should be incorporated giving an elongated primer of MW 3277. […] In the control experiment, photo-irradiation of the unmodified counterpart [NT] ID NO: 3) was conducted under the same conditions. […] We also measured possible photoirradiation-induced DNA damage. Under the conditions we used (300 nm, over 10 h) no DNA damage was observed.

[3] = test system: pCa17 plasmid; test: in vivo functional assay / restriction protection assay of M.SssI variants (HpaII digestion of isolated plasmid); details: 200 ng plasmid, 1 U HpaII, 37° C., 1 hour, agarose gel
[4] = Photoirradiation of 5-PhAll-OMC with 350 nm light in the presence of triplet sensitizer thioxanthone, HPLC analysis; format: physicochemical; details: 20 min
From the text: 5-PhAll-OMC was irradiated with 350 nm light in the presence of the triplet photosensitizer thioxanthone (TX).
The new product was found 1 mass unit higher than the starting material 5-PhAll-OMC, indicating possible U analog was generated from 5-PhAll-OMC. […] The ^13C NMR spectra, shown in FIG. 27, unambiguously confirm the formation of a [2+2] cycloadduct in either straight or cross configuration.

[5] = Laser flash photolysis, triplet energy transfer from thioxanthone; details: 355 nm pulsed laser, argon saturated acetonitrile, quencher 0 to 0.25 mM

Nc1cc[nH]c(=O)n1 [C, Cytosine]
photochemical conversion to U analog on photo-irradiation [1]: remain intact | ddNTP incorporated in single base extension after photo-irradiation of template [2]: ddATP

Cc1c[nH]c(=O)nc1N [5-methyl-C, 5-methylcytosine]
photochemical conversion to U analog on photo-irradiation [1]: remain intact

C=CCOCc1cn([C@H]2C[C@H](O)[C@@H](CO)O2)c(=O)nc1N [5-All-OMC, 5-allyloxymethyl-dC]
photochemical conversion to U analog on photo-irradiation [1]: high efficiency | HPLC profile during photo-irradiation ([1]; after 3 h of irradiation): the main peak is the starting material | HPLC profile during photo-irradiation, starting material ([1]; after 12 h photo-irradiation): mostly consumed

wild-type: wild type CpG specific DNA methyltransferase M.SssI expressed from pCAL7
resistance of isolated M.SssI expressing plasmid to HpaII digestion [3]: completely resistant

O=c1c2ccccc2sc2ccccc12 [TX, thioxanthone]
concentration of the sensitizer after photoirradiation [4]: remained unchanged

5′-TACGACGAGTGCGGCA-3′: unmodified counterpart 16mer, control (DNA, backbone not given here)
ddNTP incorporated in single base extension after photo-irradiation of template [2]: ddGTP

OCC=Cc1ccccc1 [cinnamyl alcohol]
rate constant of quenching of thioxanthone triplet (triplet energy transfer), kq [5]: 7.8e+09 M⁻¹ s⁻¹
